# Patent US20240009269A1 (priority 2020, published 2024)
# Read-outs that look alike come from different tables or passages of the source.
# Tested on: mouse brain (blood-brain barrier)
# Description: Briefly, male C57BL/6J mice (n=43, 6-8 weeks old, 20-25 g, Jackson Laboratory) were anesthetized with 2% isoflurane. The common carotid artery (CCA) bifurcation was exposed and the occipital artery branching off from the external carotid artery (ECA) was coagulated. The ECA and the pterygopalatine artery (PPA) were temporarily ligated with 4-0 silk sutures. A temporary ligature using a 4-0 suture was placed on the carotid bifurcation and the proximal CCA was permanently ligated. A microcatheter (PE-8-100, SAI Infusion Technologies) was flushed with 2% heparin (1,000 U mL^−1, heparin sodium, Upjohn), inserted into the CCA via a small arteriotomy, and advanced into the internal carotid artery (ICA).
# For each animal, 150 μL of solution was infused at a rate of 150 μL minute^−1. […] The brains were harvested immediately after Evans Blue injection, sectioned in brain slicer matrix (Zivic Instruments) to produce 1 mm slabs.
# Animal anesthesia was maintained at 1.5-2% during the MRI scan. Mice were placed on a water-heated animal bed equipped with temperature and respiratory control. Respiration was monitored and maintained at 30-60 minutes^−1. All MRI experiments were performed on a Bruker 11.7T MRI scanner. Baseline T2 (TR/TE=2,500/30 ms), susceptibility-weighted imaging (SWI) (TR/TE=378/8 ms), T1 (TR/TE 350/6.7 ms)-weighted, dynamic gradient echo echo-planar imaging (GE-EPI, TR/TE 1250/9.7 ms, field of view (FOV)=14×14 mm, matrix=128×128, acquisition time=60 s and 24 repetitions) and dynamic T1 imaging (TR/TE 2000/3. 5ms, field of view=14×14 mm, acquisition time=8 seconds and 20 repetitions) images of the brain were acquired. The microcatheter was connected to a syringe mounted on an MRI compatible programmable syringe pump (PHD 2000, Harvard Apparatus Inc.). Gadolinium (Gd; Prohance) dissolved in saline at 1:50 was infused intra-arterially at the rate of 150 μL minute^−1 under dynamic GE-EPI MRI for visualization of perfusion territory. […] To quantify BBB status, T1 intensities in cortex, hippocampus and thalamus/hypothalamus were compared between ipsilateral and contralateral hemispheres. T1 hyperintensity was corrected for possible asymmetry using pre-contrast T1 images and normalized as the ratio of ipsilateral to contralateral intensity. Additionally, the area of BBBO (mm^2) was calculated by conversion of T1 images to binary using the Auto Threshold function (plugin v1.17; Maximum Entropy method) [Kapur, J. N., P. K. Sahoo, and A. K. C. Wong, Computer Vision, Graphics, and Image Processing, 1985, 29(3): p. 273-285] in ImageJ. T2-weighted and SWI images were acquired at the same timepoints for detection of brain damage and microhemorrhage. Subsequently, animals were sacrificed for further histological assessment.
# To determine the area and region of perfusion territory, we first calculated the contrast enhancement maps at the time where contrast enhancement was at its maximum. As Gd causes negative contrast under T2 imaging, we calculated the contrast enhancement as (SIpre-SIpost)/SIpre, where SI is the signal intensity of an MR image. Histogram was plotted for all pixels in the brain region in a contrast enhancement map and further fitted into two Gaussian distributions, assuming there were two dominant populations for non-contrast enhanced and contrast-enhanced pixels, respectively. The cutoff value to separate the two populations was then determined. The fraction of contrast enhanced areas was calculated by the ratio of the number of pixels, whose values are larger than the cutoff value, to the total number of pixels in the brain. A similar method was used to determine the BBBO territory.
smiles,measurement,setting,value
CC[C@H](C)[C@H](NC(=O)CN)C(=O)NCC(=O)N[C@@H](C)C(=O)N[C@H](C(=O)N[C@@H](CC(C)C)C(=O)N[C@@H](CCCCN)C(=O)N[C@H](C(=O)N[C@@H](CC(C)C)C(=O)N[C@H](C(=O)N[C@H](C(=O)NCC(=O)N[C@@H](CC(C)C)C(=O)N1CCC[C@H]1C(=O)N[C@@H](C)C(=O)N[C@@H](CC(C)C)C(=O)N[C@H](C(=O)N[C@@H](CO)C(=O)N[C@@H](Cc1c[nH]c2ccccc12)C(=O)N[C@H](C(=O)N[C@@H](CCCCN)C(=O)N[C@@H](CCCNC(=N)N)C(=O)N[C@@H](CCCCN)C(=O)N[C@@H](CCCNC(=N)N)C(=O)N[C@@H](CCC(N)=O)C(=O)N[C@@H](CCC(N)=O)C(N)=O)[C@@H](C)CC)[C@@H](C)CC)[C@@H](C)O)[C@@H](C)O)C(C)C)C(C)C [melittin],Evans Blue leakage,1 μM·minute,No leakage of Evans Blue
same,dose relative to solubility limit (fold below),3 μM·min melittin,~120 fold
same,Evans Blue leakage,"3 μM·minute, ipsilateral hemisphere",reproducible leakage of Evans Blue
same,Evans Blue extravasation,"3 μM·minute, 24 hours",no Evans Blue extravasation
same,leakage of Gd (T1 MRI),"3 μM·minute, 24 hours",marginal leakage
same,T1 hyperintensity,"3 μM·minute, cortex",much lower
same,BBB status (Gd-enhanced MRI and Evans Blue),"3 μM·minute, day 7",full recovery of the BBB
same,"T1 intensity, ipsilateral vs contralateral","3 μM·minute, hippocampus and thalamus/hypothalamus, following dosing",significant increase
same,"brain territory opened (area of BBBO, T1 thresholding)","3 μM·minute, within the hippocampus, immediately after dosing",5.70±1.73 mm^2
same,Evans Blue leakage,5 μM·minute,Widespread leakage of Evans Blue
same,reduction of BBBO area,at 24 hours and 7 days,~20 fold
same,minimum effective dose for BBBO,"intra-arterial (internal carotid artery), 1 minute",3 µM·min
same,"difference in dose required for BBBO, human microvessels (20 μM·minute) vs mouse brain (3 μM·minute)","mouse, in vivo",approximately 7 fold
